From patent publication US20230183656A1, “METHODS AND COMPOSITIONS FOR PURIFYING ADENO ASSOCIATED VIRUS PARTICLES OR ADENOVIRUSES” (Merck Patent GmbH, priority 2020, published 2023)

Columns and labels:
[1] = cited from earlier work
HEK293T-derived cells = experiment: Turbidity post lysis and % cell lysis (ViCell XR) in 3L Mobius bioreactor; format: cell-based, human; conditions: AAV2, 3L Mobius at 72 hr PT; NaCl at 0.5 M; lysed cells to total cells before lysis
Procedure: Cell lysis performed according to the general procedure of Example 1 was performed with different reagents and compared in terms of turbidity reduction and lysis efficiency.
Each turbidity in Table 2 is an average of 1-3 bioreactors x 2 measurements. PT = post transfection. […] Cell counts were taken by ViCell XR before lysis and at 30 min post lysis, and % cell lysis was calculated as a ratio of lysed cells to total cells before lysis.

AAV2 = AAV2 release after cell lysis (physical titer by ELISA, genome titer by qPCR); format: cell-based; conditions: for AAV2 viral titers after cell lysis: 90 min, 37° C., 0.5% Triton X-100, 0.5 M NaCl, or 0.5 M sodium chloride and 1% TDAO, FIG. 1 and 2; for increase of AAV2 dissociation by addition to 0.5 M NaCl: 1% detergent added to 0.5 M NaCl, FIG. 2
Procedure: (§1) An AAV2 suspension upstream process is performed including a cell lysis step using various single reagents, like Triton X-100 (T100) or TDAO at various concentrations or 0.5 M NaCl, all at 37° C. The samples were centrifuged at ~13000 g for 5 min at different time points post lysis, and supernatants were removed and stored at -70° C. for assays. Physical titers were measured by enzyme-linked immunosorbent assay (ELISA) using an AAV2 Titration ELISA kit (Progen) following manufacturer’s protocol, genome titers were measured by quantitative PCR (qPCR) targeting a specific sequence within the transfer vector. All reagents and assay protocols are from MilliporeSigma unless otherwise specified. Among all the conditions tested, 0.5 M NaCl was the only one capable of releasing significant amounts of AAV2 at physical titer of e10 vp/mL and genome titer of e9 gc/mL levels (FIG. 1). Moreover, time-dependent effects from 30 min to 90 min post lysis for all 3 single reagents, and concentration-dependent effects from 0.5% to 1% for both single detergents have been observed (FIG. 1).
The same process is performed as in Example 1 but with NaCl combined with different detergents.
To investigate the optimal concentration of TDAO in combination with 0.5 M NaCl, an AAV2 dissociation test using 0 to 4% of TDAO and including an additional lysis time of 60 min was performed. […] Furthermore, the best lysis time of 90 min was confirmed as before based on genome titers. When calculating % full viral particles (vp) as the ratio of genome titer to physical titer, it was noted that 2% TDAO also facilitated more release of full viral particles over time with ~100% full VP at 90 min post lysis due to unknown mechanisms (FIG. 4).

AAV9 = AAV9 release after cell lysis (titers as in Example 1); format: cell-based; conditions: with NaCl, FIG. 5
Procedure: as §1
An AAV9 suspension upstream process is performed as in Example 1 but using both single reagents and double reagents combined with NaCl.

## CCCCCCCCCCCC[N+](C)(C)[O-] [LDAO, N,N-Dimethyldode cylamine N-oxide]
[1]
  biodegradation in 28 days: 95%

## CCCCCCCCCC[N+](C)(C)[O-] [N,N-Dimethyldecyl amine N-oxide]
[1]
  biodegradation in 28 days: 97%

## CCCCCCCCCCCCCCCC[N+](C)(C)[O-] [N,N-Dimethylhexa decylamine N-oxide]
[1]
  biodegradation in 28 days: <88%

## CCCCCCCC[N+](C)(C)[O-] [N,N-Dimethyloctyl amine N-oxide]
[1]
  biodegradation in 28 days: 100%

## [Cl-].[Na+] [NaCl, sodium chloride, reference compound]
HEK293T-derived cells
  % cell lysis after 30 min: 80%
AAV2
  AAV2 viral titers after cell lysis: significantly reduced viral titers

## CCCCCCCCCCCCCC[N+](C)(C)[O-] [TDAO, N,N-Dimethyltertra decylamine N-oxide]
[1]
  biodegradation in 28 days: 88%
AAV9
  AAV9 dissociation, double reagents with 2% TDAO compared to 1% TDAO: no benefits
AAV2; 0 to 4% of TDAO, genome titers, FIG. 3
  increase of AAV2 dissociation by addition of TDAO to 0.5 M NaCl: 3-5 fold
AAV2
  increase of AAV2 dissociation by addition to 0.5 M NaCl: 3-9 fold
AAV2; 2% TDAO with 0.5 M NaCl, 90 min post lysis, FIG. 4
  % full viral particles (ratio of genome titer to physical titer): ~ 100%

## Triton X-100 [reference compound]
AAV2
  increase of AAV2 dissociation by addition to 0.5 M NaCl: not
  AAV2 viral titers after cell lysis: significantly reduced viral titers
